Legend:
[1] = tested on: acetylation of histone H4; assay: Analysis of protein acetylation in human PBMC (western blot); format: cell-based; conditions: 4 hr
Protocol: (§1) Human peripheral blood mononuclear cells (PBMC) (IRB No. CKD-IRB-012) were seeded (1.0 × 10^6 cells/well) and cultured for 24 hr on 12-well plate before treatment of CKD-506 or LBH-589. The chemicals were treated for 4 hr. After harvesting cells, total protein extracts were prepared. The protein extracts were resolved in pre-made SDS-PAGE (NuPAGE® Bis-Tris Precast Gels, Invitrogen). Proteins were transferred onto polyvinylidene difluoride (PVDF) membrane and probed with the following antibodies; anti-acetyl α tubulin (1:5000, #5335, Cell Signaling Technology), α tubulin (1:2000, #2144, Cell Signaling Technology), anti-acetyl histone H4(1:5000, #8647, Cell Signaling Technology), anti-histone H4(1:1000, #2935S, Cell Signaling Technology), and anti-beta-actin (1:5000, #A5441, Sigma). The horseradish peroxidase-conjugated anti-rabbit IgG (1:5000, #7074S, Cell Signaling Technology) and anti-mouse IgG (1:5000, #7076 S, Cell Signaling Technology) were used as secondary antibodies. Acetylated proteins were visualized by chemiluminescence (RPN2235, GE healthcare) and detected by the Gel documentation system (ChemiDoc™, BioRad).

[2] = tested on: acetylation of α tubulin; assay: as above; format: cell-based
Protocol: as §1

Q: How did the “effect on acetylation of histone H4” value [1] turn out when CKD-506 was run?
A: without affecting

Q: And the “acetylation of α tubulin, % of maximum acetylation” value ([2]; at 100 nM, human PBMC)?
A: about 85%

Q: What about the IC90 ([2]; read-out: IC90 for the induction of α tubulin acetylation) of the same substance?
A: ~0.1 µM
